Source: patent publication EP4741383A1, “COMPOUND AND USE THEREOF AS ANTI-CANCER DRUG” (Tyligand Bioscience (Shanghai) Limited, priority 2023, dated 2025)

Each molecule was assayed against T1, CYP2D6 (Homo sapiens, UniProt P10635) (assay: CYP450 inhibition in human liver microsomes, CYP2D6). Conditions: pH 7.4, read-out: % CYP inhibition @ 10 µM 2D6.
T1 construct: tissue Corning or Xenotech; host or cells: human liver microsomes
Assay type: in vitro ADME
From the text: According to standard methods in the field for the study of cytochrome P450 enzyme systems, such as the method described in Kerns, Edward H. and Di Li et al., Drug-like Properties: Concepts, Structure Design and Methods: from ADME to Toxicity Optimization (2008), San Diego, Academic Press, and Lin, Tong et al., In Vitro Assessment of Cytochrome P450 Inhibition: Strategies for Increasing LC/MS-Based Assay Throughput Using a One-Point IC50 Method and Multiplexing High-Performance Liquid Chromatography (J. Pharm. Sci. 2007, 96 (9), 2485). The inhibitory effect of the disclosed compounds on the cytochrome P450 enzyme system was similarly examined below.
Human liver microsomes were purchased from Corning or Xenotech. The test compounds were evaluated by detecting the metabolism of substrates for different Cyp450 isoforms by human liver microsomes.
0.1 M potassium phosphate buffer (K-buffer, pH 7.4) was pre-warmed.
100 mM K-buffer was prepared by mixing 9.5 mL of stock solution A (1 M potassium dihydrogen phosphate, prepared by dissolving 136.5 g of potassium dihydrogen phosphate in 1 L of Milli-Q water) with 40.5 mL of stock solution B (1 M potassium hydrogen phosphate, prepared by dissolving 174.2 g of potassium hydrogen phosphate in 1 L of Milli-Q water). The total volume was adjusted to 500 mL with Milli-Q water, and the buffer was titrated to pH 7.4 using KOH or H3PO4.
Test compound solution and specific inhibitor solution (400× dilution) were prepared in a 96-well plate. For the test compound, 8 µL of 10 mM test compound was transferred into 12 µL of ACN. For specific inhibitors of CYP1A2, CYP2C9, and CYP2D6: 12 µL of 1 mM α-naphthoflavone, 10 µL of 40 mM sulfaphenazole, 10 µL of 10 mM quinidine, and 8 µL of DMSO were mixed. For specific inhibitors of CYP3A4, CYP2B6, CYP2C8, and CYP2C19: 8 µL of DMSO stock solution was added to 12 µL of ACN.
A 4× diluted NADPH solution was prepared by dissolving 66.7 mg of NADPH in 10 mL of 0.1 M K-buffer (pH 7.4). […]

T1 sequence (P10635 whole entry): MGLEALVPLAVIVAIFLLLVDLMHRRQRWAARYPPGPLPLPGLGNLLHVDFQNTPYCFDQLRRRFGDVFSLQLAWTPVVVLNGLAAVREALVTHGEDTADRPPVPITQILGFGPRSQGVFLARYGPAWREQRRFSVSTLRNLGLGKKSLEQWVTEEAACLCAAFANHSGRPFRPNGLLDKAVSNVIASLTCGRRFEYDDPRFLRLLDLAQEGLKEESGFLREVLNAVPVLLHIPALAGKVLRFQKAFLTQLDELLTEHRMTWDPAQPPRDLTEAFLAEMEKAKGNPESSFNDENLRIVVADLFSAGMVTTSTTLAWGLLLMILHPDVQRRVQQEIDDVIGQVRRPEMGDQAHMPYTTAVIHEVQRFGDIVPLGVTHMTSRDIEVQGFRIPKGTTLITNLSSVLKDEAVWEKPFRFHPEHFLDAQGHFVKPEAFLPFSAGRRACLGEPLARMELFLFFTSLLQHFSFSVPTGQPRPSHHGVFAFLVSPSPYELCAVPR

inhibition at 10 min, 10 µM [%] | Structure (SMILES)
-5.43 | O=C(Nc1ccc(-c2cc3cc(F)c(-c4nnn[nH]4)cc3n2C2CCC2)cc1)C(=O)Nc1ccc(N2CCC(CO)CC2)cc1 [Example 23]
-12.6 | O=C(Nc1ccc(-c2cc3cc(F)c(-c4nnn[nH]4)cc3n2C2CCC2)cc1)C(=O)Nc1ccc(N2CCC3(CCOC3)CC2)cc1 [Example 67]
-4.07 | CC1(n2c(-c3ccc(NC(=O)C(=O)Nc4ccc(N5CCC6(CCOC6)CC5)cc4)cc3)cc3cc(F)c(-c4nnn[nH]4)cc32)CCC1 [Example 68]
